Laboratory results from a melting point compilation (Tetko et al.; mined from patent text by program, amines drawn as free bases though some values may be those of a salt).

`CN1CCN(C(=O)[C@H](CC(N)=O)NC(=O)CCc2ccc(OCc3ccccc3)cc2OCc2ccccc2)CC1` gave a melting point of 121 to 123 °C.
With `CCOC(=O)c1cc2cc(C#N)ccc2[nH]1` the melting point was 181 to 182 °C.
With `O=[N+]([O-])c1ccc2ncnc(Nc3cccc(Br)c3)c2c1` the melting point was 267 to 270 °C.
In the case of `O=C(Nc1ccc(C(F)(F)F)cc1)C1CC(c2ccc(F)cc2)N(c2ccc(Cl)cc2)N1` (stereo not drawn), the melting point was 50 to 55 °C.
Compound `Cc1cc(Cl)cc(C(=O)N(Cc2ccccc2)C2(C)CNC2)c1NC(=O)c1cc(C(F)(F)F)nn1-c1ncccc1Cl` has a melting point of 127 to 130 °C.
With `CO/C=C1/C(=O)NC(=O)c2ccc(Br)cc21` the melting point was 210 to 211 °C.
Work on `O=c1c2ccc3c(c2oc2cccc(F)c12)CC(CO)O3` (stereo not drawn) yielded a melting point of 220 to 221 °C.
For `COc1ccc(CC2SC(=O)NC2=O)c2c1N(Cc1ccc(N)cc1)C(=O)CC2` (stereo not drawn), the melting point was 174 to 175 °C.
Compound `CCOCCc1cc(C)c(OCCN2C(C)C(Br)=C(C(N)=O)N2C)c(C)c1` (stereo not drawn) has a melting point of 112 to 114 °C.
With `CN(O)C(=O)c1ccc(CCCCc2ccncc2)cc1` the melting point was 148 to 150 °C.
Compound `CCOC(=O)C1=C(C)NC(C)=C(C(=O)OCCN2CCN(C(c3ccc(C)cc3)c3ccc(C)cc3)CC2)C1c1cccc(Cl)c1Cl` (stereo not drawn) has a melting point of 85 to 88 °C.
For `CCCCCCNP(N)(N)=S`, the melting point was 65 to 70 °C.
`O=C(O)Cc1csc(N=C2SC[C@@H]3Cc4ccccc4CN23)n1` gave a melting point of 185 °C.
For `Cc1cc(C(=O)N(C)C)ncc1C(c1c(F)ccc(F)c1F)S(=O)(=O)CCC(F)(F)F` (stereo not drawn), the melting point was 203 to 204 °C.
In the case of `O=C1c2ccccc2C(=O)N1CCc1cn2ccccc2n1`, the melting point was 181 to 182 °C.
Compound `O=CNNc1ccc(NC(=S)Nc2ccc(NNC=O)cc2)cc1` has a melting point of 212 to 214 °C.
`Nc1c([N+](=O)[O-])ccc(Sc2ccccc2)c1Cl` showed a melting point of 144 to 146 °C.
Work on `O=C(O)c1cc(OCCCCCCOc2ccc(-c3ccccc3)cc2)ccc1OCc1ccccc1` yielded a melting point of 131 to 133 °C.
Work on `CCOC(=O)Cc1c(Br)cnc2c([N+](=O)[O-])cccc12` yielded a melting point of 163 to 164 °C.
Work on `Cc1ccc2c(n1)CC(c1ccccc1)CC2=O` (stereo not drawn) yielded a melting point of 79 to 81 °C.
With `COc1ccc(-c2cnc(N3CCc4c([nH]c5ccccc45)C3C3Cc4ccccc4O3)nc2)cc1` (stereo not drawn) the melting point was 242 to 243 °C.
Work on `Oc1c(F)cc(Cn2cnnc2S)cc1F` yielded a melting point of 184 to 185 °C.
Work on `CS(=O)(=O)Nc1ccc2ncn3c(=O)c(C(=O)O)cnc3c2c1` yielded a melting point of 319 to 322 °C.
Compound `CCC1(C(=O)Nc2ccc(OC)cc2)CCCCC1C` (stereo not drawn) has a melting point of 107 °C.
For `CC(=O)c1ccc(-c2ccccc2[N+](=O)[O-])cc1`, the melting point was 106 to 109 °C.
`C=C1CCCCCCCSC[C@@H](C(=O)O)NC1=O` showed a melting point of 184 to 186 °C.
In the case of `CCC(C(=O)N(C)C)n1cc(C)c(-c2cccs2)n1` (stereo not drawn), the melting point was 83 to 85 °C.
Work on `c1csc(C2NCCc3ccccc32)c1` (stereo not drawn) yielded a melting point of 114 to 116 °C.
With `CS(=O)(=O)Nc1ccc(C=O)cc1Sc1ccc(F)cc1F` the melting point was 109 to 111 °C.
Compound `CCn1c(C)nc2cc(C(F)(F)F)c(OC)c([N+](=O)[O-])c21` has a melting point of 84 to 85.5 °C.
With `CCC(CC)NC(=O)C[C@@H](C(=O)NC[C@@H](O)[C@@H](N)Cc1ccccc1)C(C)(C)C` the melting point was 155 to 158 °C.
`CC(=O)Cc1ccc2oc(C(=O)O)c(C)c2c1` gave a melting point of 77 to 79 °C.
With `CCOP(=O)(NCc1ccc2c(c1)-c1n[nH]c(=O)c3cccc(c13)O2)OCC` the melting point was 222 to 224 °C.
In the case of `COc1cccc(S(=O)(=O)N(CC(N)=O)c2ccc(Cl)cc2Cc2ccccc2Cl)c1`, the melting point was 65.7 °C.
`CC(C)(CNC(=O)COCC(=O)O)SN=O` showed a melting point of 81 to 83 °C.
Compound `CC1CCc2ncc(C#N)c(=O)n21` (stereo not drawn) has a melting point of 148 °C.
`c1ccc(-c2cc3n(n2)Cc2ccccc2-3)cc1` showed a melting point of 183 to 184 °C.
Compound `O=C1c2ccccc2COc2ccc(CCOC(c3ccccc3)(c3ccccc3)c3ccccc3)cc21` has a melting point of 132 to 134 °C.
Compound `CCc1ccc(C2C(C(=O)c3ccc(C(C)C)cc3)=C(O)C(=O)N2c2ccc(C)nn2)cc1` (stereo not drawn) has a melting point of 282 to 284 °C.
`Clc1ccc(-c2coc3ccccc23)cc1` gave a melting point of 56 to 57 °C.
In the case of `O=C(NCCCCCCCCn1ccnc1)c1ccc(Cl)nc1`, the melting point was 79 to 81 °C.
Work on `COc1ccc2c(c1)c(CC(=O)OCC(=O)O)c(C)n2C(=O)c1ccc(F)c(F)c1` yielded a melting point of 128 to 129 °C.
With `Cc1oc(-c2ccccc2)nc1CCOc1ccc(CC(C(=O)O)c2ccccc2)cc1` (stereo not drawn) the melting point was 124 to 125 °C.
With `COc1cc(C2Cc3ccccc3-c3nc(N)c4ccccc4c32)cc(OC)c1OC` (stereo not drawn) the melting point was 272 °C.
With `S=C(NCc1cccnc1)NC(=Nc1ccccc1)c1ccccc1` the melting point was 146 to 147 °C.
For `CCCCc1ccccc1NC(C)=O`, the melting point was 96.5 to 99.5 °C.
`CCCCCCCCCCCCCCCCC/C=C1\SC(=O)NC1=O` showed a melting point of 97 to 98.5 °C.
In the case of `Cc1ccc(C(=O)C2=C(O)C(=O)N(c3ccc(C)nn3)C2c2ccc(N3CCN(CCN(C)C)CC3)cc2)cc1` (stereo not drawn), the melting point was 185 °C.
`Cc1cc(CCCCCOc2c(Cl)cc(C3=NCCO3)cc2Cl)sn1` gave a melting point of 38 to 39.5 °C.
For `COC(=O)C1c2ccccc2N(C)c2ccc(Cl)cc21` (stereo not drawn), the melting point was 166 °C.
`Nn1c2c(c3ccccc3c1=O)C(=O)c1ccccc1-2` gave a melting point of 272 to 274 °C.
`Cc1ccc(S(=O)(=O)OC(C)C(=O)N2CCOCC2)cc1` (stereo not drawn) showed a melting point of 75 to 77 °C.
With `CC(C)C[C@H](NC(=O)[C@H](Cc1ccccc1)NCC(S)C(N)Cc1ccccc1)C(=O)O` (stereo partly drawn) the melting point was 123 to 160 °C.
With `CCc1ccc(NC(=O)NCc2ccc3c(c2)CN(C2CCC(=O)NC2=O)C3=O)cc1` (stereo not drawn) the melting point was 263 to 265 °C.
`O=[N+]([O-])c1c(Cl)cccc1NCCO` showed a melting point of 78 °C.
In the case of `CCCCCCCNC(=O)Nc1ccccc1C(=O)NC1CCN(Cc2c(C(C)C)nc(C(C)C)c(COC)c2-c2ccc(F)cc2)CC1`, the melting point was 123 °C.
In the case of `Cc1cc(Cl)c2c(O)c3c(=O)[nH][nH]c(=O)c3nc2c1`, the melting point was 197 to 199 °C.
`CCCCCCCCCCCCCCCCCCNCC(O)COc1ccc(Nc2ccccc2)cc1` (stereo not drawn) gave a melting point of 81 to 86 °C.
In the case of `CC1=C(c2ccnc3ccccc23)SCC(=O)N1`, the melting point was 174 to 176 °C.
Work on `Cc1cccc2ncn(-c3nnn[nH]3)c(=O)c12` yielded a melting point of 280 to 281 °C.
In the case of `CN(Cc1ccccc1)C1c2ccccc2CCCC1O` (stereo not drawn), the melting point was 70 °C.
For `COc1cc(OCc2ccncc2)ccc1/C=C/c1cc(/C=C/c2cccc3cc[nH]c23)n[nH]1`, the melting point was 201 to 206 °C.
`CCCc1nc(SC(F)F)c(C(=O)O)n1Cc1ccc(-c2ccccc2S(=O)(=O)NC(=O)NCCCc2ccccc2)cc1` gave a melting point of 108 °C.
Compound `COc1ccc(C2(C#N)CC2)cc1OC1CCCC1` has a melting point of 80.4 °C.
With `O=C(Nc1cccc2c(Sc3ncc[nH]3)c(Br)cnc12)c1c(Cl)cccc1Cl` the melting point was 249 to 251 °C.
`COc1ccc(C(=O)c2cc3c(c(Cl)c2Cl)OC(C(=O)O)C3)cc1` (stereo not drawn) showed a melting point of 187 °C.
In the case of `CC(C)CC1(C(CC(C)Sc2cccs2)C(=O)NO)CCN(CCc2ccccc2)C1=O` (stereo not drawn), the melting point was 104 to 105 °C.
`CCCC1(CCC)CCC2(CC1)CC(=O)N(CCC#N)C2=O` gave a melting point of 117 to 118 °C.
`COC(=O)COc1cccc(-c2ccc(Cl)cc2)n1` gave a melting point of 60 to 63 °C.
Work on `FC(F)(F)c1ccc2c(c1)SSSSS2` yielded a melting point of 44 to 50 °C.
Work on `COc1ccc(CN(C)CCCOc2cccc(NC(=O)c3cccc4c(=O)c5cccc(OC)c5[nH]c34)c2)cc1OC` yielded a melting point of 124 °C.
With `Cc1nn(-c2cc(C(=O)NS(=O)(=O)N(C)C(C)C)c(Cl)cc2F)c(=O)n1C(F)F` the melting point was 118 to 122 °C.
`COC(=O)c1ccc(Nc2nc(Nc3ccc(C(=O)OC)cc3)nc(Nc3ccc(C(=O)OCCOc4ccc(C(C)(C)CC(C)(C)C)cc4)cc3)n2)cc1` gave a melting point of 157 to 160 °C.
For `CCOC(=O)C1CN(CC)c2nc(SC)ncc2C1=O` (stereo not drawn), the melting point was 157 °C.
Compound `Cc1oc(-c2ccccc2)nc1CCSc1ccc(OC(C)(C)C(=O)O)cc1` has a melting point of 104 to 106 °C.
Compound `CN(C)C=Nc1nc2c(nnn2C2CC(O)C(CO)O2)c(=O)[nH]1` (stereo not drawn) has a melting point of 236 °C.
`CONC(=O)c1cc(-c2ccc(-c3ccco3)cc2)n(-c2ccc(S(C)(=O)=O)c(F)c2)n1` showed a melting point of 126 to 128 °C.
In the case of `C=CCN1C(=O)c2cccc3c(N(C)CCO)ccc(c23)C1=O`, the melting point was 90 to 91 °C.
Compound `Cc1c(Cc2ccccc2)oc2cc(O)c(O)cc12` has a melting point of 95.5 to 98 °C.
`CCOC(=O)c1cc2cc(Oc3ccc(S(C)(=O)=O)cc3)cc(OCc3ccccc3)c2[nH]1` showed a melting point of 148 to 149 °C.
Work on `CCOc1c(OC)cc(N)c2ncccc12` yielded a melting point of 129 to 131 °C.
Compound `Cc1cc(N)nc(CCc2nc3cc(-c4ccc(S(=O)(=O)N5CCN(C)CC5)cc4)cnc3[nH]2)c1` has a melting point of 135 °C.
With `CCCCN1CCC(n2c(=O)[nH]c3ccccc32)CC1` the melting point was 207 to 209 °C.
In the case of `COc1ccc(-c2cnc3cc4cnn(CC#N)c4cc3n2)cc1F`, the melting point was 248 to 252 °C.
Work on `O=C(NCCN1CCN(c2cccc(Cl)c2)CC1)NC12CC3CC(CC(C3)C1)C2` yielded a melting point of 136 to 137 °C.
`Cc1cccc(N2CCN(CCc3c(C)nc4ccc(Cl)cn4c3=O)CC2)c1` showed a melting point of 119 to 120 °C.
`CCCCOC(=O)COc1ccc(C(=O)Nc2cccc(Cl)c2Cl)cc1` showed a melting point of 132 to 136 °C.
With `CC(O)c1cc2c(Cl)cc(F)c(-n3c(=O)cc(C(F)(F)F)n(C)c3=O)c2o1` (stereo not drawn) the melting point was 154 to 157 °C.
In the case of `COc1ccc2cnc(Nc3ccccc3)nc2c1C1CCCC1`, the melting point was 187 to 188 °C.
For `NCCN1CCC(Nc2nc3ccccc3[nH]2)CC1`, the melting point was 99.8 °C.
For `Cc1ccnc2nc(NS(=O)(=O)c3ccccc3Cl)nn12`, the melting point was 268 to 269 °C.
`CS(=O)(=O)O[C@H](COC(=O)CCl)[C@H](NC(=O)OCc1ccccc1)C(N)=O` showed a melting point of 140 to 142 °C.
In the case of `COc1ccc(C2=NN(c3ccc(C(=O)Nc4ccc(C5=NNC(=O)CC5C)cc4)cc3)C(=O)C3CC=CCC23)cc1OC` (stereo not drawn), the melting point was 249 to 250 °C.
For `c1ccc(Nc2ncnc3[nH]nc(Nc4ccccc4)c23)cc1`, the melting point was 263 to 264 °C.
In the case of `CCN(C(=O)n1nnc2cc(C)c(C)cc21)c1ccccc1`, the melting point was 136 °C.
`CSCCCn1cc(C(Cc2ccccc2Br)=NO)c2ccc(Cl)c(Cl)c21` gave a melting point of 139 to 142 °C.
Compound `COc1ccccc1NC(=O)Nc1nc(Nc2ccccc2-c2ccccc2)nc(N(CCC(=O)O)Cc2ccc(C)cc2)n1` has a melting point of 102 °C.
`c1cc(C2=NOC(C3CC3)(N3CCCC3)C2)ccn1` (stereo not drawn) showed a melting point of 80 to 85 °C.
